Data from ChEMBL document CHEMBL3822457, “Synthesis and biological analysis of novel glycoside derivatives of l-AEP, as targeted antibacterial agents” (2016).
Active and inactive are the calls of the source. No cut-off for these calls is given here.

Experiments:
[1] = tested on: Salmonella enterica subsp. enterica serovar Virchow; test: Antibacterial activity against Salmonella enterica serovar Virchow ATCC 5742 at 2 mg/ml in presence of DM1 and IPTG at pH 7.2; assay type: functional
[2] = tested on: Klebsiella aerogenes; test: Antibacterial activity against Enterobacter aerogenes ATCC 13048 at 2 mg/ml in presence of DM1 and IPTG at pH 7.2; assay type: functional, organism-based
[3] = tested on: Salmonella enterica subsp. enterica serovar Virchow; test: Antibacterial activity against Salmonella enterica serovar Virchow ATCC 5742 at 2 mg/ml in presence of DM1 at pH 7.2 in absence of IPTG; assay type: functional
[4] = tested on: Salmonella typhimurium; test: Antibacterial activity against Salmonella enterica serovar Typhimurium ATCC 14028 at 2 mg/ml in presence of DM1 and IPTG at pH 7.2; assay type: functional, organism-based; details: Salmonella enterica subsp. enterica serovar Typhimurium
[5] = tested on: Klebsiella pneumoniae; test: Antibacterial activity against Klebsiella pneumoniae ATCC 13882 at 2 mg/ml in presence of DM1 at pH 7.2 in absence of IPTG; assay type: functional, organism-based
[6] = tested on: Klebsiella aerogenes; test: Antibacterial activity against Enterobacter aerogenes ATCC 13048 at 2 mg/ml in presence of DM1 at pH 7.2 in absence of IPTG; assay type: functional, organism-based
[7] = tested on: Klebsiella pneumoniae; test: Antibacterial activity against Klebsiella pneumoniae ATCC 13882 at 2 mg/ml in presence of DM1 and IPTG at pH 7.2; assay type: functional, organism-based
[8] = tested on: Salmonella typhimurium; test: Antibacterial activity against Salmonella enterica serovar Typhimurium ATCC 14028 at 2 mg/ml in presence of DM1 at pH 7.2 in absence of IPTG; assay type: functional, organism-based; details: Salmonella enterica subsp. enterica serovar Typhimurium
[9] = tested on: Cronobacter sakazakii; test: Antibacterial activity against Cronobacter sakazakii ATCC 29544 at 2 mg/ml in presence of DM1 at pH 7.2 in absence of IPTG; assay type: functional
[10] = tested on: Cronobacter sakazakii; test: Antibacterial activity against Cronobacter sakazakii ATCC 29544 at 2 mg/ml in presence of DM1 and IPTG at pH 7.2; assay type: functional
[11] = tested on: Salmonella typhimurium; test: Antibacterial activity against Salmonella enterica serovar Typhimurium ATCC 14028 in presence of NB2 medium at pH 7.2; assay type: functional, Salmonella enterica subsp. enterica serovar Typhimurium
[12] = tested on: Serratia marcescens; test: Antibacterial activity against Serratia marcescens ATCC 13880 in presence of DM1 at pH 6.9; assay type: functional; details: subsp. marcescens ATCC 13880
[13] = tested on: Klebsiella pneumoniae; test: Antibacterial activity against Klebsiella pneumoniae ATCC 13882 in presence of DM1 at pH 7.2; assay type: functional
[14] = Antibacterial activity against Salmonella enterica serovar Virchow ATCC 5742 in presence of DM1 and glucose at pH 7.2; assay type: functional, Salmonella enterica subsp. enterica serovar Virchow
[15] = Antibacterial activity against Salmonella enterica serovar Virchow ATCC 5742 in presence of DM1 at pH 6.9; assay type: functional, Salmonella enterica subsp. enterica serovar Virchow
[16] = tested on: Klebsiella pneumoniae; test: Antibacterial activity against Klebsiella pneumoniae ATCC 13882 in presence of DM1 and glucose at pH 7.2; assay type: functional
[17] = tested on: Pseudomonas aeruginosa; test: Antibacterial activity against Pseudomonas aeruginosa ATCC 27853 in presence of NB2 medium at pH 7.2; assay type: functional
[18] = tested on: Klebsiella aerogenes; test: Antibacterial activity against Enterobacter aerogenes ATCC 13048 in presence of NB2 medium at pH 7.2; assay type: functional
[19] = tested on: Proteus mirabilis; test: Antibacterial activity against Proteus mirabilis ATCC 14253 in presence of NB2 medium at pH 7.2; assay type: functional
[20] = tested on: Klebsiella aerogenes; test: Antibacterial activity against Enterobacter aerogenes ATCC 13048 in presence of DM1 at pH 6.9; assay type: functional
[21] = tested on: Cronobacter sakazakii; test: Antibacterial activity against Cronobacter sakazakii ATCC 29544 in presence of DM1 at pH 7.2; assay type: functional
[22] = tested on: Pseudomonas aeruginosa; test: Antibacterial activity against Pseudomonas aeruginosa ATCC 27853 in presence of DM1 at pH 7.2; assay type: functional
[23] = tested on: Serratia marcescens; test: Antibacterial activity against Serratia marcescens ATCC 13880 in presence of DM1 and glucose at pH 7.2; assay type: functional; details: subsp. marcescens ATCC 13880
[24] = tested on: Cronobacter sakazakii; test: Antibacterial activity against Cronobacter sakazakii ATCC 29544 in presence of DM1 and glucose at pH 7.2; assay type: functional
[25] = tested on: Salmonella typhimurium; test: Antibacterial activity against Salmonella enterica serovar Typhimurium ATCC 14028 in presence of DM1 at pH 7.2; assay type: functional, Salmonella enterica subsp. enterica serovar Typhimurium
[26] = tested on: Klebsiella aerogenes; test: Antibacterial activity against Enterobacter aerogenes ATCC 13048 in presence of DM1 at pH 7.2; assay type: functional
[27] = tested on: Serratia marcescens; test: Antibacterial activity against Serratia marcescens ATCC 13880 in presence of DM1 at pH 7.2; assay type: functional; details: subsp. marcescens ATCC 13880
[28] = tested on: Klebsiella aerogenes; test: Antibacterial activity against Enterobacter aerogenes ATCC 13048 in presence of DM1 and glucose at pH 7.2; assay type: functional
[29] = tested on: Proteus mirabilis; test: Antibacterial activity against Proteus mirabilis ATCC 14253 in presence of DM1 and glucose at pH 7.2; assay type: functional
[30] = Antibacterial activity against Salmonella enterica serovar Virchow ATCC 5742 in presence of NB2 medium at pH 7.2; assay type: functional, Salmonella enterica subsp. enterica serovar Virchow
[31] = Antibacterial activity against Salmonella enterica serovar Virchow ATCC 5742 in presence of DM1 at pH 7.2; assay type: functional, Salmonella enterica subsp. enterica serovar Virchow
[32] = tested on: Klebsiella pneumoniae; test: Antibacterial activity against Klebsiella pneumoniae ATCC 13882 in presence of NB2 medium at pH 7.2; assay type: functional
[33] = tested on: Cronobacter sakazakii; test: Antibacterial activity against Cronobacter sakazakii ATCC 29544 in presence of NB2 medium at pH 7.2; assay type: functional
[34] = tested on: Pseudomonas aeruginosa; test: Antibacterial activity against Pseudomonas aeruginosa ATCC 27853 in presence of DM1 at pH 6.9; assay type: functional
[35] = tested on: Proteus mirabilis; test: Antibacterial activity against Proteus mirabilis ATCC 14253 in presence of DM1 at pH 6.9; assay type: functional
[36] = tested on: Pseudomonas aeruginosa; test: Antibacterial activity against Pseudomonas aeruginosa ATCC 27853 in presence of DM1 and glucose at pH 7.2; assay type: functional
[37] = tested on: Cronobacter sakazakii; test: Antibacterial activity against Cronobacter sakazakii ATCC 29544 in presence of DM1 at pH 6.9; assay type: functional
[38] = tested on: Salmonella typhimurium; test: Antibacterial activity against Salmonella enterica serovar Typhimurium ATCC 14028 in presence of DM1 at pH 6.9; assay type: functional, Salmonella enterica subsp. enterica serovar Typhimurium
[39] = tested on: Serratia marcescens; test: Antibacterial activity against Serratia marcescens ATCC 13880 in presence of NB2 medium at pH 7.2; assay type: functional; details: subsp. marcescens ATCC 13880
[40] = tested on: Salmonella typhimurium; test: Antibacterial activity against Salmonella enterica serovar Typhimurium ATCC 14028 in presence of DM1 and glucose at pH 7.2; assay type: functional, Salmonella enterica subsp. enterica serovar Typhimurium
[41] = tested on: Klebsiella pneumoniae; test: Antibacterial activity against Klebsiella pneumoniae ATCC 13882 in presence of DM1 at pH 6.9; assay type: functional
[42] = tested on: Proteus mirabilis; test: Antibacterial activity against Proteus mirabilis ATCC 14253 in presence of DM1 at pH 7.2; assay type: functional

C[C@H](NC(=O)O[C@@H]1O[C@H](CO)[C@H](O)[C@H](O)[C@H]1O)P(=O)(O)O
Activity [1]: inactive
Activity [2]: inactive
Activity [3]: inactive
Activity [4]: inactive
Activity [5]: inactive
Activity [6]: inactive
Activity [7]: Active
Activity [8]: inactive
Activity [9]: inactive
Activity [10]: Active

C[C@H](NC(=O)O[C@@H]1O[C@H](CO)[C@@H](O)[C@H](O)[C@H]1O)P(=O)(O)O
MIC [11]: > 1 µg/mL
MIC [12]: < 0.75 µg/mL
MIC [13]: > 1 µg/mL
MIC [14]: > 1 µg/mL
MIC [15]: > 1 µg/mL
MIC [16]: 1 µg/mL
MIC [17]: 1 µg/mL
MIC [18]: > 1 µg/mL
MIC [19]: > 1 µg/mL
MIC [20]: < 0.75 µg/mL
MIC [21]: < 0.75 µg/mL
MIC [22]: < 0.75 µg/mL
MIC [23]: 1 µg/mL
MIC [24]: < 0.75 µg/mL
MIC [25]: > 1 µg/mL
MIC [26]: > 1 µg/mL
MIC [27]: 1 µg/mL
MIC [28]: 1 µg/mL
MIC [29]: > 1 µg/mL
MIC [30]: > 1 µg/mL
MIC [31]: > 1 µg/mL
MIC [32]: > 1 µg/mL
MIC [33]: 1 µg/mL
MIC [34]: < 0.75 µg/mL
MIC [35]: > 1 µg/mL
MIC [36]: 1 µg/mL
MIC [37]: < 0.75 µg/mL
MIC [38]: > 1 µg/mL
MIC [39]: > 1 µg/mL
MIC [40]: > 1 µg/mL
MIC [41]: > 1 µg/mL
MIC [42]: > 1 µg/mL
